Tests used:
[1] = target: T1, Acs1 (acetyl CoA synthetase) (Saccharomyces cerevisiae, UniProt Q01574); test: hydroxylamine-coupled acetyl CoA synthetase assay; […] inhibition at […]; format: biochemical
T1 construct: purified S. cerevisiae acetyl CoA synthetase (Sigma, A1765)

[2] = target: T1, Acs1 (acetyl CoA synthetase); test: hydroxylamine-coupled acetyl CoA synthetase assay (acethydroxamic acid, OD540); format: biochemical

T1 sequence (Q01574 whole entry): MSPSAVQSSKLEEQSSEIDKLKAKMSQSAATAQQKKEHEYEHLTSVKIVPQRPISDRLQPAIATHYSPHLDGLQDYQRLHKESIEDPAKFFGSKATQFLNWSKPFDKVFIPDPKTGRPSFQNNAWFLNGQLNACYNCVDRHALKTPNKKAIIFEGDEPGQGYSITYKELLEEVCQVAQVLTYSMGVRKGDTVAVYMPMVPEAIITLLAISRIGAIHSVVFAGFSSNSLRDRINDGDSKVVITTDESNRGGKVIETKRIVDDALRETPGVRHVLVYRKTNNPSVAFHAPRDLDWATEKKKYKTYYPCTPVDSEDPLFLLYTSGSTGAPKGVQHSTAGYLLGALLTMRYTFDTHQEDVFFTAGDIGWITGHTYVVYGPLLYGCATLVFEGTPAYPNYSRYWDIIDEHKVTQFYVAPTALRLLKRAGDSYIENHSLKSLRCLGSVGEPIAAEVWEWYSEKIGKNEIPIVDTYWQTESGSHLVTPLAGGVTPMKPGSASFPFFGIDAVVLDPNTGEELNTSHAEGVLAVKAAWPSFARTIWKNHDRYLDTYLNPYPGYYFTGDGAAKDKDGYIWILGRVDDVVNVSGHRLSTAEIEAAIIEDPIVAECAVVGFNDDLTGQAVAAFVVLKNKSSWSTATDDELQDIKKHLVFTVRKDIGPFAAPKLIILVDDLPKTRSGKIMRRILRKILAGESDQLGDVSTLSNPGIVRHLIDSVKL

| SMILES | inhibition at 18.8 µM [1] | IC50 [2] |
| --- | --- | --- |
| CC(C)c1ccc(CC(=O)N2CCN(c3ccc(C#N)nn3)CC2)cc1 [PZ-2891] | 32.7% | – |
| NCC(=O)Nc1ccc(-n2nc(C(F)(F)F)cc2-c2ccc3c(ccc4ccccc43)c2)cc1 [AR-12] | – | ~18 µM |

Reference: PMC11266677, “Vitamin B5 metabolism is essential for vacuolar and mitochondrial functions and drug detoxification in fungi” (Communications Biology, 2024)
